Earlier results in PMC9851200, “Multiparameter phenotypic screening for endogenous TFEB and TFE3 translocation identifies novel chemical series modulating lysosome function” (Autophagy, 2022).

Columns and labels:
Set-up in all cases: method as in original PKIS2 published data
[1] = target: kinases (KINOMEscan panel) (Homo sapiens, UniProt Q15375); conditions: EPHA7; Published KINOMEscan; ref original PKIS2 published data; cited from earlier work
[2] = target: kinases (KINOMEscan panel) (Homo sapiens, UniProt Q04912); conditions: MST1R; Published KINOMEscan; ref original PKIS2 published data; cited from earlier work
Sequence of kinases (KINOMEscan panel) (Homo sapiens, UniProt Q04912) (Q04912 25-1400): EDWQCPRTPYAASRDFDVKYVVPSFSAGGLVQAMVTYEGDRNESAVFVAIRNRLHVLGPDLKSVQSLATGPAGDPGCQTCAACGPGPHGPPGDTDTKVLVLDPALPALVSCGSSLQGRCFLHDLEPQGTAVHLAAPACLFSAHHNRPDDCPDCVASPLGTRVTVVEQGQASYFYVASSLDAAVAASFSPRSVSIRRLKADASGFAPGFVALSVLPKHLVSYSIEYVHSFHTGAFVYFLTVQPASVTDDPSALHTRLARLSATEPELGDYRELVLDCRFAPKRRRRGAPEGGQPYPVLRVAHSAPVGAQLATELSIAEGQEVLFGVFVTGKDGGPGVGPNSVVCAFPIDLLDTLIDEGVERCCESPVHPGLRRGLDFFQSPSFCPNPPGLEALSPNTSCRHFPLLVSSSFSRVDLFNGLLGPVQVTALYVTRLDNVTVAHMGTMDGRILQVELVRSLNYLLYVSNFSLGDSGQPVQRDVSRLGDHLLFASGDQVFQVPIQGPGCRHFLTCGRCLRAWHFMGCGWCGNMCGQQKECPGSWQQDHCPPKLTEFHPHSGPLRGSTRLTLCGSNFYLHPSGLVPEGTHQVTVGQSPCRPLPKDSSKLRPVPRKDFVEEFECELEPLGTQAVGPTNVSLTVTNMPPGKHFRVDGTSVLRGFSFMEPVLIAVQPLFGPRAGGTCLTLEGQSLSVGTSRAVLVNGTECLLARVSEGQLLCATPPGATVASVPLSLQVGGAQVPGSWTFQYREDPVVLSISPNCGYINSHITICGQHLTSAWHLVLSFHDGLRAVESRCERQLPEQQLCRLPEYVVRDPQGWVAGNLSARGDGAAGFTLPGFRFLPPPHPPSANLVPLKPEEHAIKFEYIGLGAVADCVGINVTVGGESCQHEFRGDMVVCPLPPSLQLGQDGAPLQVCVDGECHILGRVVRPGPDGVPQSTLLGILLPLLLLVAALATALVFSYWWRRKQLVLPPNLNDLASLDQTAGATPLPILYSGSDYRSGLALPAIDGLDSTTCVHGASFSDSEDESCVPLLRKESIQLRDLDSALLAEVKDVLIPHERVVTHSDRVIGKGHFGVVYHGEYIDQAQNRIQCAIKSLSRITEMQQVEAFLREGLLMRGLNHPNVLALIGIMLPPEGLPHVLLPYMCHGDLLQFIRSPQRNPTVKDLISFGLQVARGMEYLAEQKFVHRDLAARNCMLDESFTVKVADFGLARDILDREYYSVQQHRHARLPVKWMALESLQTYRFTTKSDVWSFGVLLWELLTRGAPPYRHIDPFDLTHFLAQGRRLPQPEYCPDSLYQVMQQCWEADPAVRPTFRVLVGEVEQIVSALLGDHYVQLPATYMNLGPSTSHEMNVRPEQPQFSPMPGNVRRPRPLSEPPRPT

[3] = target: T1, kinases (KINOMEscan panel) (Homo sapiens, UniProt Q9BRS2); conditions: RIOK1; Published KINOMEscan; ref original PKIS2 published data; cited from earlier work
T1 sequence (Q9BRS2 1-568): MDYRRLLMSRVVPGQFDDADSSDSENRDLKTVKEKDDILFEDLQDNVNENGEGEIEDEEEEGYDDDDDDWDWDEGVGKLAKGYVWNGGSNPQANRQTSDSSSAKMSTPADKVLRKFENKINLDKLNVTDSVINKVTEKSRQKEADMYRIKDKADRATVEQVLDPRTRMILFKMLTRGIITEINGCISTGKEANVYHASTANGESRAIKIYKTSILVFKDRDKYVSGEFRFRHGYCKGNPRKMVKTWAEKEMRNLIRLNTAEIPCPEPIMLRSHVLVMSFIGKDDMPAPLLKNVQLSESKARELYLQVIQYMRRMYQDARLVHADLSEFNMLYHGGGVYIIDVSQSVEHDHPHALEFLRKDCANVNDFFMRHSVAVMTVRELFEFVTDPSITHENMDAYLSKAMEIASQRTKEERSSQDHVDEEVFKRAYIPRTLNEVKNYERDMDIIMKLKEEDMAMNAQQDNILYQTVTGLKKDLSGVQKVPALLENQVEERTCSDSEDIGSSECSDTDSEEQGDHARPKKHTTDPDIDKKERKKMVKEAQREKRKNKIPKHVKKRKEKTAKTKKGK

[4] = target: T2, kinases (KINOMEscan panel) (Homo sapiens, UniProt Q8NFD2); conditions: ANKK1; Published KINOMEscan; ref original PKIS2 published data; cited from earlier work
T2 sequence (Q8NFD2 1-765): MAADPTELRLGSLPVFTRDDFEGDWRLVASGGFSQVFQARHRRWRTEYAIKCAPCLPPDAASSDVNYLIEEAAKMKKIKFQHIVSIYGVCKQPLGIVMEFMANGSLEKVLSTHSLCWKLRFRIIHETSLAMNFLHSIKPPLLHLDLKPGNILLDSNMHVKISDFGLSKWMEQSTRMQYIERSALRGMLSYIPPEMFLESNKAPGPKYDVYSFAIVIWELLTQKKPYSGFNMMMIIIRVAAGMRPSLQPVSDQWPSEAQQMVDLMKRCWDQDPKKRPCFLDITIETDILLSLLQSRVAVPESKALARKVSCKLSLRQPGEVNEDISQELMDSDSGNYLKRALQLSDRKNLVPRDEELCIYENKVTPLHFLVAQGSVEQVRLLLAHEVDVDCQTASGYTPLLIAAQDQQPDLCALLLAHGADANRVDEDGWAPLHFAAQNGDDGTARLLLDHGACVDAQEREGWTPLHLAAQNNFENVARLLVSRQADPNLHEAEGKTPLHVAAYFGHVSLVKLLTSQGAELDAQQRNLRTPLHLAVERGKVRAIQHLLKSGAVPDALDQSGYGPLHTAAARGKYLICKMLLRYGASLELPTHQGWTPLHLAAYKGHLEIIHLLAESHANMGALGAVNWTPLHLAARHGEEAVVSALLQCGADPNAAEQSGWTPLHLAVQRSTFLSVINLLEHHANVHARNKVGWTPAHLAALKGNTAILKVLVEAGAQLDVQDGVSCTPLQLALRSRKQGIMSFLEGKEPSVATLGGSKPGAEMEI

[5] = target: T3, kinases (KINOMEscan panel) (Homo sapiens, UniProt P29320); conditions: kinase EPHA3; Published KINOMEscan; ref original PKIS2 published data; cited from earlier work
T3 sequence (P29320 21-983): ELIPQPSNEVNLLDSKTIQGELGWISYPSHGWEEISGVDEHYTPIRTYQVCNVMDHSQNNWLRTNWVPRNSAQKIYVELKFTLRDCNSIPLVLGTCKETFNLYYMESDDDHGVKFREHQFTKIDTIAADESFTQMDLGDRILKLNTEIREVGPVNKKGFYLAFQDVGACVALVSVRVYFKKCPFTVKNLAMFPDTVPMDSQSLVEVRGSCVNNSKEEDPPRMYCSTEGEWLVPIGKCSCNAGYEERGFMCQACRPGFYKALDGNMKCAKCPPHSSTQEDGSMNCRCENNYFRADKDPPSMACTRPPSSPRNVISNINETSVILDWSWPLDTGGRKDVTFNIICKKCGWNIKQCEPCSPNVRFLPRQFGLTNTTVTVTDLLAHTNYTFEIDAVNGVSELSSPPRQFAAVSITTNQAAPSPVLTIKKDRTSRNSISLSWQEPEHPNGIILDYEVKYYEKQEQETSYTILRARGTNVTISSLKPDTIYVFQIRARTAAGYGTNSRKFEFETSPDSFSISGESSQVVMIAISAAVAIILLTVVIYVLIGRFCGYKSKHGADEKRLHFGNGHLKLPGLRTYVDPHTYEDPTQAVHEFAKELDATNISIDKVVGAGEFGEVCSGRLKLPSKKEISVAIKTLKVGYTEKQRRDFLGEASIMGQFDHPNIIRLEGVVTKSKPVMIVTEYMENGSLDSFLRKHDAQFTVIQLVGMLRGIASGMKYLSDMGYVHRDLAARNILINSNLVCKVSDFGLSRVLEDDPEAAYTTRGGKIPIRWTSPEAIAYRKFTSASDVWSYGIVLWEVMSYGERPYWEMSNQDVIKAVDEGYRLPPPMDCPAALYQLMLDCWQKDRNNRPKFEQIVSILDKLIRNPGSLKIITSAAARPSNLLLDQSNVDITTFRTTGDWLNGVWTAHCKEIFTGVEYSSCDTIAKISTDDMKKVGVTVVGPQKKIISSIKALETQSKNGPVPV

[6] = target: kinases (KINOMEscan panel) (Homo sapiens, UniProt P08069); conditions: kinase IGF1R; Published KINOMEscan; ref original PKIS2 published data; cited from earlier work
Sequence of kinases (KINOMEscan panel) (Homo sapiens, UniProt P08069) (P08069 31-1367): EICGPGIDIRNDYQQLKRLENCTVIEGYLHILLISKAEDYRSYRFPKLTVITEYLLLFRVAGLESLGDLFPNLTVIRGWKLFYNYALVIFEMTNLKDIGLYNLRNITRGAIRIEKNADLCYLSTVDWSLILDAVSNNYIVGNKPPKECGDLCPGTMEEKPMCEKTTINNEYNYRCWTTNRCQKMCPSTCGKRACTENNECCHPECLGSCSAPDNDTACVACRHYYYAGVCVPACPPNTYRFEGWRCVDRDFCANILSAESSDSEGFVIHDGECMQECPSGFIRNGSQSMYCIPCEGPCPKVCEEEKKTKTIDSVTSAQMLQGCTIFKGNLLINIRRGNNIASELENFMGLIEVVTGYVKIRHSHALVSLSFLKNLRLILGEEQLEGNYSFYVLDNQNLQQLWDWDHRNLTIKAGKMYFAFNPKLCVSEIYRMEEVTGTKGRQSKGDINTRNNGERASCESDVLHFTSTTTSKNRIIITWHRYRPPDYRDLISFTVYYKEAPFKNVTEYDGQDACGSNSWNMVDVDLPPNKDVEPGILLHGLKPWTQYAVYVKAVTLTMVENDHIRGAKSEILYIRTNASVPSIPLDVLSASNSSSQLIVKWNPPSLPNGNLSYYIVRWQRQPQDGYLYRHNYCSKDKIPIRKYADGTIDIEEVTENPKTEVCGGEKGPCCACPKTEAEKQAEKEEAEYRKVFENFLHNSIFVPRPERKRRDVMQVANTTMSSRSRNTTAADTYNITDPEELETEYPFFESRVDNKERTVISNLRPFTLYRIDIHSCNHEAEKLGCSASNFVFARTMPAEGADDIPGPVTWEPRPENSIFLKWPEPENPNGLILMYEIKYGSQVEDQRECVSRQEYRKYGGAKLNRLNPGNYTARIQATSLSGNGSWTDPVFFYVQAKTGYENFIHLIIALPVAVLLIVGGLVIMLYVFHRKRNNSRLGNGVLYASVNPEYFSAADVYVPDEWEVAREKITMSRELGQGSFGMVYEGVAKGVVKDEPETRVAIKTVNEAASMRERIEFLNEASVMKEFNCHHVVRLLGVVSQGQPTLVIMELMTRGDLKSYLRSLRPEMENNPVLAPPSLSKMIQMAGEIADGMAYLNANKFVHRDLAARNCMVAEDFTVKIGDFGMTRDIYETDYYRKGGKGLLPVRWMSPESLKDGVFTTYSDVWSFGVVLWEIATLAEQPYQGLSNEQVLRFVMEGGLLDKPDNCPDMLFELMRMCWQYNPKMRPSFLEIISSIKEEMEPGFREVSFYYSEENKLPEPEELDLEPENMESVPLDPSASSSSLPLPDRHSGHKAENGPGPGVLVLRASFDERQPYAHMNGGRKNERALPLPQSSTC

[7] = target: kinases (KINOMEscan panel) (Homo sapiens, UniProt O96013); conditions: PAK4; Published KINOMEscan; ref original PKIS2 published data; cited from earlier work
Sequence of kinases (KINOMEscan panel) (Homo sapiens, UniProt O96013) (O96013 whole entry): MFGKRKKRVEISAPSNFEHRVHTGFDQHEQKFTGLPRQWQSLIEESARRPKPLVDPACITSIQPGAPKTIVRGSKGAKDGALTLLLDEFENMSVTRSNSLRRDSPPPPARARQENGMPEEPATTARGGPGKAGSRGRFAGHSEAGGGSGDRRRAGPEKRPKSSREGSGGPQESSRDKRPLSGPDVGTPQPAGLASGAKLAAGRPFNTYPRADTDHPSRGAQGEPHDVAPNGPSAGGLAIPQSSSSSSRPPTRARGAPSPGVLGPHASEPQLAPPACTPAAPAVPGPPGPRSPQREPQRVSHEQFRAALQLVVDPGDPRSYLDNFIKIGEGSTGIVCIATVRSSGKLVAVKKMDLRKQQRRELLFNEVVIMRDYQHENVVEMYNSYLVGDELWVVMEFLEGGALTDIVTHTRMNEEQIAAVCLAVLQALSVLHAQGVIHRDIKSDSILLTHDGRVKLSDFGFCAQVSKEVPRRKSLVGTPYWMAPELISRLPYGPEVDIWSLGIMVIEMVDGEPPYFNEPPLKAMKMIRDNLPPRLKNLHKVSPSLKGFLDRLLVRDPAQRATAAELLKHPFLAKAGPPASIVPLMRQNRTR

Sequence of kinases (KINOMEscan panel) (Homo sapiens, UniProt Q15375) (Q15375 28-998): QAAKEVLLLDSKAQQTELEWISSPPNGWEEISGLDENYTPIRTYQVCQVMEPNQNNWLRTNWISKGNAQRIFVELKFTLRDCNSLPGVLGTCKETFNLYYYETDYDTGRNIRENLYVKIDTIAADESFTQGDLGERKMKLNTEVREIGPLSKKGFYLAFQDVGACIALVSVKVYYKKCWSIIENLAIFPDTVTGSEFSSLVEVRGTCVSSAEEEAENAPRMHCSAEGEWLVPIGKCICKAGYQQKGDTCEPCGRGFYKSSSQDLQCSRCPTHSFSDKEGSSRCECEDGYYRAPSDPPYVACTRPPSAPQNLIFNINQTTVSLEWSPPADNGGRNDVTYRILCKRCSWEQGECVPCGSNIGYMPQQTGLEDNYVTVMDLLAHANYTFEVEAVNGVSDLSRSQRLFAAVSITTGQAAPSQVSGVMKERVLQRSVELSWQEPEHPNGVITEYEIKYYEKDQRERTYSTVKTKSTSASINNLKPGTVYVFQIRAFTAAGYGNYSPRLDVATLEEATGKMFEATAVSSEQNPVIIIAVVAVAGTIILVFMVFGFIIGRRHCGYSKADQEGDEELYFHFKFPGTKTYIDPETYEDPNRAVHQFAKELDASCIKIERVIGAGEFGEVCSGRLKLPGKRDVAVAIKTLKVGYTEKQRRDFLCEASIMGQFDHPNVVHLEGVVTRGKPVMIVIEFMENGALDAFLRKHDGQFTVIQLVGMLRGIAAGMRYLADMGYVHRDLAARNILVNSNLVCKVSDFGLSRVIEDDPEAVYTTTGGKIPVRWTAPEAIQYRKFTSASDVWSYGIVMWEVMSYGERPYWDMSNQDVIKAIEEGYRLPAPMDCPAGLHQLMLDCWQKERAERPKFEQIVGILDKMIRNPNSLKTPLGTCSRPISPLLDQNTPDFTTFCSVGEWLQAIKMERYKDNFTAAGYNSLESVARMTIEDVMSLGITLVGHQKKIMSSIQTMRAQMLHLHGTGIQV

Cc1cccc(-c2nc(Nc3ccncc3)c3ccccc3n2)n1 [NK215]
0: KINOMEscan EPHA7 [1] | KINOMEscan MST1R [2] | KINOMEscan RIOK1 [3] | KINOMEscan ANKK1 [4] | KINOMEscan EPHA3 [5] | KINOMEscan IGF1R [6] | KINOMEscan PAK4 [7]
